Test results: US12679878B2, “CRF2 receptor agonists and their use in therapy” (SANOFI, priority 2020, dated 2026)
Starred links: 1 amine or outer side, 2 acyl side, 3 side chain; linkers in the order of their positions; H or OH if unused. Non-standard residues stand in square brackets, D forms with d. Residues, ends and D or L forms follow the SMILES beside them. Groups on a side chain read outwards from the residue. *: point of attachment. C18 diacid = O=C(O)CCCCCCCCCCCCCCCCC(=O)*; γGlu = O=C(O)[C@H](CCC(=O)[*:2])N[*:1]; Palmitoyl = CCCCCCCCCCCCCCCC(=O)*; AEEA = NCCOCCOCC(=O)O; Aib = CC(C)(N)C(=O)O

Assays:
Assay type in all cases: cell-based
rat CRF2R α receptor = experiment: cAMP agonism at rat CRF2R α receptor in A7R5 rat aortic smooth muscle cells (Example 8); conditions: cAMP HTRF, A7R5 rat aortic smooth muscle cell line, 0% HSA
How it was run: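 Thawed cryopreserved A7R5 cells in HBSS/20 mM HEPES (0 or 0.1% HSA) with 2 mM IBMX, 2000 cells/well, were exposed to compound for 30 min at room temperature. cAMP was read by HTRF (665/620 nm ratio) after 1 h with lysis reagents. Activity was normalised to 1000 nM urocortin 2 as 100%, and EC50 was taken as the concentration giving 50% of maximal activation.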

CRF1R receptor [1] = target: T1, CRF1R receptor (Homo sapiens, UniProt P34998); experiment: cAMP activity at anti-target CRF1R, CHO-K1 cell line clone 2 (Example 19.10); conditions: 100% = Sauvagine at 100 nM; CRF1R CHO-K1 clone 2
T1 construct: host or cells: CHO-K1 clone 2
T1 sequence (P34998 24-415): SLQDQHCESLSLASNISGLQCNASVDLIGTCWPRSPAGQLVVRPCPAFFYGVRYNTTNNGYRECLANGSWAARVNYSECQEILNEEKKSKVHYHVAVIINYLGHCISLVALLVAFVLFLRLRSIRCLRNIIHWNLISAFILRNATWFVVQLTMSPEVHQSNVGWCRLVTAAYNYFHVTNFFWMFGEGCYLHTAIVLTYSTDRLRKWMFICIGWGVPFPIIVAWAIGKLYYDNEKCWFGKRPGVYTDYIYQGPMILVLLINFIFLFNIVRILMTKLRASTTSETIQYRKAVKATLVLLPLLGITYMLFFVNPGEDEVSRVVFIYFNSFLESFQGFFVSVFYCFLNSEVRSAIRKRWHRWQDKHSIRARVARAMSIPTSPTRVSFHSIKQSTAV
How it was run: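 A CRF1R-overexpressing CHO-K1 line (clone 2) was grown in F12/10% FBS/G418 and frozen in aliquots before use. The cAMP assay followed the preceding procedure, with 100% activation defined by Sauvagine at 100 nM.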

CRF1R receptor [2] = target: T1, CRF1R receptor; experiment: cAMP activity at anti-target CRF1R, CRF1R-overexpression CHO cell line (Example 9); conditions: CRF1R-overexpression CHO cell line; read-out: Emax (%)
How it was run: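 cAMP accumulation was read by HTRF after 30 min at room temperature of compound treatment. Cells were cryopreserved CHO cells overexpressing CRF1R, plated at 2000/well in IBMX (2 mM)-containing HBSS/HEPES buffer with 0 or 0.1% HSA. Activity was normalized to 1000 nM UCN2 as 100%.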

Row | Structure (SMILES) | EC50 (rat CRF2R α receptor) [nM] | Emax (CRF1R receptor [2]) [%] | Emax (CRF1R receptor [1]) [%]
1 | CCCCCCCCCCCCCCCC(=O)N[C@@H](CCC(=O)NCCCC[C@H](NC(=O)[C@H](CC(C)C)NC(=O)[C@H](CCCCN)NC(=O)[C@@H](NC(=O)[C@@H]1CCCN1C(=O)[C@H](NC(=O)[C@H](CC(=O)O)NC(=O)[C@H](CC(C)C)NC(=O)[C@H](CO)NC(=O)[C@H](CC(C)C)NC(=O)[C@@H](NC(=O)[C@@H](N)[C@@H](C)CC)C(C)C)C(C)C)[C@@H](C)O)C(=O)N[C@@H](CCC(N)=O)C(=O)N[C@@H](CCCCN)C(=O)N[C@@H](CC(C)C)C(=O)N[C@@H](CC(C)C)C(=O)N[C@@H](CCCCN)C(=O)N[C@@H](CCC(N)=O)C(=O)N[C@@H](CCC(=O)O)C(=O)N[C@@H](CCCNC(=N)N)C(=O)N[C@@H](CCC(N)=O)C(=O)N[C@@H](CCCNC(=N)N)C(=O)N[C@@H](CCCCN)C(=O)N[C@@H](CCC(=O)O)C(=O)N[C@@H](CCCNC(=N)N)C(=O)N[C@@H](CCC(=O)O)C(=O)NC(C)(C)C(=O)N[C@@H](C)C(=O)N[C@@H](CCC(=O)O)C(=O)N[C@@H](CCCCN)C(=O)N[C@@H](CC(N)=O)C(=O)N[C@@H](CCCCN)C(=O)N[C@@H](CCCNC(=N)N)C(=O)N[C@H](C(=O)N[C@@H](CC(C)C)C(=O)N[C@@H](CCC(=O)O)C(=O)N[C@@H](CCCNC(=N)N)C(=O)N[C@H](C(N)=O)C(C)C)[C@@H](C)CC)C(=O)O [SEQ ID NO: 225, IVLSLDvPTKLK*QKLLKQERQRKEREAibAEKNKRILERV-NH2] (H-IVLSLD[dV]PTKLK([γGlu-Palmitoyl])QKLLKQERQRKERE[Aib]AEKNKRILERV-NH2; N-terminus assumed) | 0.12 | – | 58.9
2 | CC[C@H](C)[C@H](NC(C)=O)C(=O)N[C@H](C(=O)N[C@@H](CC(C)C)C(=O)N[C@@H](CO)C(=O)N[C@@H](CC(C)C)C(=O)N[C@@H](CC(=O)O)C(=O)N[C@@H](C(=O)N1CCC[C@H]1C(=O)N[C@H](C(=O)N[C@@H](CCCCN)C(=O)N[C@@H](CC(C)C)C(=O)N[C@@H](CCCCNC(=O)COCCOCCNC(=O)COCCOCCNC(=O)CC[C@H](NC(=O)CCCCCCCCCCCCCCCCC(=O)O)C(=O)O)C(=O)N[C@@H](CCC(N)=O)C(=O)N[C@H](C(=O)N[C@@H](CC(C)C)C(=O)N[C@@H](CC(C)C)C(=O)N[C@@H](CCC(=O)O)C(=O)N[C@@H](CCC(N)=O)C(=O)N[C@@H](C)C(=O)N[C@@H](CCCNC(=N)N)C(=O)N[C@@H](CCC(N)=O)C(=O)N[C@@H](CCCCN)C(=O)NC(C)(C)C(=O)N[C@@H](CCC(N)=O)C(=O)N[C@@H](CCCNC(=N)N)C(=O)N[C@@H](CCC(=O)O)C(=O)N[C@@H](CCC(N)=O)C(=O)N[C@@H](C)C(=O)N[C@@H](CCC(=O)O)C(=O)N[C@@H](CCCCN)C(=O)N[C@@H](CC(N)=O)C(=O)N[C@@H](CCC(=O)O)C(=O)N[C@@H](CCC(N)=O)C(=O)N[C@H](C(=O)N[C@@H](CC(C)C)C(=O)N[C@@H](CCC(=O)O)C(=O)N[C@@H](CCC(N)=O)C(=O)N[C@H](C(N)=O)C(C)C)[C@@H](C)CC)[C@@H](C)CC)[C@@H](C)CC)C(C)C)C(C)C [compound 165] (Ac-IVLSLD[dV]PIKLK([AEEA-AEEA-γGlu-C18 diacid])QILLEQARQK[Aib]QREQAEKNEQILEQV-NH2) | 2.41 | 26.9 | –
3 | CC[C@H](C)[C@H](NC(C)=O)C(=O)N[C@H](C(=O)N[C@@H](CC(C)C)C(=O)N[C@@H](CO)C(=O)N[C@@H](CC(C)C)C(=O)N[C@@H](CC(=O)O)C(=O)N[C@@H](C(=O)N1CCC[C@H]1C(=O)N[C@H](C(=O)N[C@@H](CCCCN)C(=O)N[C@@H](CC(C)C)C(=O)N[C@@H](CCCCNC(=O)COCCOCCNC(=O)COCCOCCNC(=O)CC[C@H](NC(=O)CCCCCCCCCCCCCCCCC(=O)O)C(=O)O)C(=O)N[C@@H](CCC(N)=O)C(=O)N[C@H](C(=O)N[C@@H](CC(C)C)C(=O)N[C@@H](CC(C)C)C(=O)N[C@@H](CCC(=O)O)C(=O)N[C@@H](CCC(N)=O)C(=O)N[C@@H](CCC(=O)O)C(=O)N[C@@H](CCCNC(=N)N)C(=O)N[C@@H](CCC(N)=O)C(=O)N[C@@H](CCCCN)C(=O)NC(C)(C)C(=O)N[C@@H](CCC(N)=O)C(=O)N[C@@H](CCCNC(=N)N)C(=O)N[C@@H](CCC(=O)O)C(=O)N[C@@H](CCC(N)=O)C(=O)N[C@@H](C)C(=O)N[C@@H](CCC(=O)O)C(=O)N[C@@H](CCCCN)C(=O)N[C@@H](CC(N)=O)C(=O)N[C@@H](CCC(=O)O)C(=O)N[C@@H](CCC(N)=O)C(=O)N[C@H](C(=O)N[C@@H](CC(C)C)C(=O)N[C@@H](CCC(=O)O)C(=O)N[C@@H](CCC(N)=O)C(=O)N[C@H](C(N)=O)C(C)C)[C@@H](C)CC)[C@@H](C)CC)[C@@H](C)CC)C(C)C)C(C)C [compound 166] (Ac-IVLSLD[dV]PIKLK([AEEA-AEEA-γGlu-C18 diacid])QILLEQERQK[Aib]QREQAEKNEQILEQV-NH2) | 9.99 | 5.94 | –

More lines, main results first:

Row | EC50 (rat CRF2R α receptor) [nM] | Emax (CRF1R receptor [2]) [%] | Structure (SMILES) | Emax (CRF1R receptor [1]) [%]
4 | 0.04 | – | CCCCCCCCCCCCCCCC(=O)N[C@@H](CCC(=O)NCCCC[C@H](NC(=O)[C@H](CC(C)C)NC(=O)CNC(=O)[C@@H](NC(=O)[C@@H]1CCCN1C(=O)[C@H](NC(=O)[C@H](CC(=O)O)NC(=O)[C@H](CC(C)C)NC(=O)[C@H](CO)NC(=O)[C@H](CC(C)C)NC(=O)[C@@H](NC(=O)[C@@H](N)[C@@H](C)CC)C(C)C)C(C)C)[C@@H](C)CC)C(=O)N[C@@H](CCC(N)=O)C(=O)N[C@@H](CCCCN)C(=O)N[C@@H](CC(C)C)C(=O)N[C@@H](CC(C)C)C(=O)N[C@@H](CCCCN)C(=O)N[C@@H](CCC(N)=O)C(=O)N[C@@H](CCC(N)=O)C(=O)N[C@@H](CCCNC(=N)N)C(=O)N[C@@H](CCC(N)=O)C(=O)N[C@@H](CCCNC(=N)N)C(=O)N[C@@H](CCCCN)C(=O)N[C@@H](CCC(=O)O)C(=O)N[C@@H](CCCNC(=N)N)C(=O)N[C@@H](CCC(N)=O)C(=O)N[C@@H](CCC(N)=O)C(=O)N[C@@H](C)C(=O)N[C@@H](CCC(=O)O)C(=O)N[C@@H](CCCCN)C(=O)N[C@@H](CC(N)=O)C(=O)N[C@@H](CCCCN)C(=O)N[C@@H](CCCNC(=N)N)C(=O)N[C@H](C(=O)N[C@@H](CC(C)C)C(=O)N[C@@H](CCC(=O)O)C(=O)N[C@@H](CCCNC(=N)N)C(=O)N[C@H](C(N)=O)C(C)C)[C@@H](C)CC)C(=O)O [SEQ ID NO: 226] (H-IVLSLD[dV]PIGLK([γGlu-Palmitoyl])QKLLKQQRQRKERQQAEKNKRILERV-NH2; N-terminus assumed) | 84
5 | 12.6 | 25.8 | CC[C@H](C)[C@H](NC(C)=O)C(=O)N[C@H](C(=O)N[C@@H](CC(C)C)C(=O)N[C@@H](CO)C(=O)N[C@@H](CC(C)C)C(=O)N[C@@H](CC(=O)O)C(=O)N[C@@H](C(=O)N1CCC[C@H]1C(=O)N[C@H](C(=O)NCC(=O)N[C@@H](CC(C)C)C(=O)N[C@@H](CCCCNC(=O)COCCOCCNC(=O)COCCOCCNC(=O)CC[C@H](NC(=O)CCCCCCCCCCCCCCCCC(=O)O)C(=O)O)C(=O)N[C@@H](CCC(N)=O)C(=O)N[C@H](C(=O)N[C@@H](CC(C)C)C(=O)N[C@@H](CC(C)C)C(=O)N[C@@H](CCC(=O)O)C(=O)N[C@@H](CCC(N)=O)C(=O)N[C@@H](CCC(=O)O)C(=O)N[C@@H](CCCNC(=N)N)C(=O)N[C@@H](CCC(N)=O)C(=O)N[C@@H](CCCCN)C(=O)NC(C)(C)C(=O)N[C@@H](CCC(N)=O)C(=O)N[C@@H](CCCNC(=N)N)C(=O)N[C@@H](CCC(=O)O)C(=O)N[C@@H](CCC(N)=O)C(=O)N[C@@H](C)C(=O)N[C@@H](CCC(=O)O)C(=O)N[C@@H](CCCCN)C(=O)N[C@@H](CC(N)=O)C(=O)N[C@@H](CCCCN)C(=O)N[C@@H](CCC(N)=O)C(=O)N[C@H](C(=O)N[C@@H](CC(C)C)C(=O)N[C@@H](CCC(=O)O)C(=O)N[C@@H](CCC(N)=O)C(=O)N[C@H](C(N)=O)C(C)C)[C@@H](C)CC)[C@@H](C)CC)[C@@H](C)CC)C(C)C)C(C)C [compound 164] (Ac-IVLSLD[dV]PIGLK([AEEA-AEEA-γGlu-C18 diacid])QILLEQERQK[Aib]QREQAEKNKQILEQV-NH2) | –
